Test results published in patent US12201693B2, “Amanitin conjugates” (Heidelberg Pharma Research GmbH, priority 2016, dated 2025).
*1 amine or outer side, *2 acyl side, *3 side chain or, on linkers, in order; H or OH if unused. Where a SMILES comes first, the peptide text is derived from it. Bridges are numbered along the chain shown (N, C = ends). [ ]: non-standard residue; d: D form. The star is where a group is joined. ξ: configuration not given here. X2 = CC(C)C(NC(=O)CCN1C(=O)C=CC1=O)C(=O)N[C@@H](C)C(=O)Nc1ccc(CN*)cc1; ξTrp(2-yl) = O=C(C(Cc1c([*:3])[nH]c2ccccc12)N[*:1])[*:2]; Ile(4R-OH,5-OH) = C[C@H]([C@H](N)C(=O)O)[C@@H](O)CO; X3 = CC([C@H](N[*:1])C(=O)[*:2])[C@@H](O)CO; X1 = O=C([C@@H]1CC(O)CN1[*:1])[*:2]; ξD = NC(CC(=O)O)C(=O)O; ξC = NC(CS)C(=O)O

Key:
[1] = reactivity with cysteine in PBS buffer, RP-HPLC C18; format: physicochemical; settings: 1 mg/mL compound, 10 mg/mL cysteine in PBS, pH 7.4 at 37° C. after 24 h, 48 h and 6 d
Description: 1 mg/ml α-amanitin 10 mg/mL cysteine in PBS, pH 7.4 at 37° C. after 24 h, 48 h and 6 d RP-HPLC C18.
1 mg/mL β-amanitin 10 mg/mL cysteine in PBS, pH 7.4 at 37° C. after 24 h, 48 h and 6 d RP-HPLC […].
1 mg/mL amanin 10 mg/mL cysteine in PBS, pH 7.4 at 37° C. after 24 h, 48 h and 6 d RP-HPLC […].
1 mg/mL HDP 30.2105, 10 mg/mL cysteine in PBS, pH 7.4 at 37° C. after 24 h, 48 h and 6 d RP-HPLC C18; * impurity.

RNA-polymerase II = RNA-polymerase II (Homo sapiens, UniProt P24928); settings: complex between amanitin and RNA-polymerase II; cited from earlier work
SKBR-3 cells = assay: cytotoxicity assay on SKBR-3 cells after plasma/PBS stressing of ADCs; format: cell-based; settings: conjugated to T-D265C, SKBR-3 cells 96 h
Description: Test items were incubated in human plasma at 37° C. for 0 an 4 days. Cytotoxicity assay were performed on SKBR-3 cells for 96 h.
Test items were incubated in mouse plasma at 37° C. for 0 an 4 days. Cytotoxicity assay were performed on SKBR-3 cells for 96 h.
Test items were incubated in PBS at 37° C. for 0 an 4 days. Cytotoxicity assay were performed on SKBR-3 cells for 96 h. All ADCs show adequate stability to non-enzymatic environment.

[2] = Western-Blot analysis of T-D265C conjugates after incubation in human plasma, mouse plasma and PBS; format: in vitro ADME; settings: conjugated to T-D265C antibody; 37° C. in human plasma, mouse plasma and PBS for 0, 4 and 10 days
Description: Western-Blot analysis of amatoxin derivatives HOP 30.1699, HDP 30.2060 and HDP 30.2115 conjugated to T-D265C antibody after incubation at 37° C. in human plasma, mouse plasma an phosphate buffered saline (PBS) for 0, 4 and 10 days. Detection was done with a polyclonal anti-amanitin antibody from rabbit and an anti-rabbit antibody conjugated to horseradish peroxidase.

Compound | reactivity with cysteine [1] | other results
β-Amanitin | strong reactivity | 
amanitin |  | Kd (RNA-polymerase II): 3 nM
amanin | reduced reactivity | 
CC[C@H](C)[C@@H]1NC(=O)CNC(=O)C2Cc3c([nH]c4ccccc34)SCC(NC(=O)CNC1=O)C(=O)N[C@@H](CC(=O)NCc1ccc(NC(=O)[C@H](C)NC(=O)C(NC(=O)CCN3C(=O)C=CC3=O)C(C)C)cc1)C(=O)N1CC(O)C[C@H]1C(=O)N[C@@H]([C@@H](C)[C@@H](O)CO)C(=O)N2 (stereo partly drawn) [HDP 30.2115] (cyclo(D(X2)[X1][Ile(4R-OH,5-OH)][ξTrp(2-yl)]GIG[ξC]); thioether 4-8) |  | cytotoxicity after plasma stressing (SKBR-3 cells; human plasma at 37° C. for 0 and 4 days): still picomolar activity; cytotoxicity after plasma stressing (SKBR-3 cells; mouse plasma at 37° C. for 0 and 4 days): remains almost unchanged; cross-links and loss of the amatoxin moiety (stability) [2]: high stability and significantly reduced cross-links
α-Amanitin | strong reactivity | 
CC[C@H](C)[C@@H]1NC(=O)CNC(=O)C2Cc3c([nH]c4ccccc34)SCC(NC(=O)CNC1=O)C(=O)NC(CC(=O)O)C(=O)N1CC(O)C[C@H]1C(=O)N[C@@H](C(C)[C@@H](O)CO)C(=O)N2 (some centres unmarked) [HDP 30.2105] (cyclo(GIG[ξC][ξD][X1][X3][ξTrp(2-yl)]); thioether 4-8) | complete absence of reactivity | 
